Assays:
IκB = IκB degradation in rat neuronal cultures (immunoblot); type: cell-based; details: rat neurons, homocysteine 50 μM, four hours, alone
Procedure: Rat and mice neuronal cultures were washed with PBS (pH 7.4), containing sodium pyrophosphate and sodium vanadate as phosphatase inhibitors, and harvested in SDS sample buffer (Laemmli, 1970, Nature 227:680-685). Equal protein from total cell lysates, estimated using BCA kit, was resolved by SDS-PAGE (7.5%) followed by western blotting on PVDF membranes. Immunoblot analysis was performed by first blocking with 5% non-fat dry milk for 1 h at room temperature followed by incubation with either COX2 immunoblot analysis (Poddar and Paul, 2009, J Neurochem 110:1095-1106) as described in each experiment. All primary antibodies and horseradish peroxidase conjugated secondary antibodies were used according to manufacturer's recommendations. Signals from immune complexes in the blots were developed using West Pico supersignal chemiluminescence reagents and then captured on X-ray films. Densitometric analysis of the images was performed using the NIH Image J software.

[1] = Total plasma homocysteine after osmotic pump implantation, mice (HPLC); type: in vivo, WT and GluN2A-KO mice; details: mouse, subcutaneous, 200 mM solution (200 μl osmotic pump, flow rate 1 μl/hr), osmotic pump with 200 mM L-homocysteine; for concentration at 5 day: day 5
Procedure: L-homocysteine (200 mM) was freshly prepared by alkali hydrolysis of L-homocysteine thiolactone hydrochloride followed by neutralization, and maintained in 0.02 mM of N-Tris(hydroxymethyl)methyl-2-aminoethanesulfonic acid buffer pH 7.4 as previously described (Poddar et al., 2001, Circulation, 103:2717-2723). Osmotic pumps (Alzet, 2ML1, flow rate 10 μl/hr; Durect Corp., Cupertino, Calif.) containing either 2 ml of freshly prepared 200 mM L-homocysteine (for hyperhomocysteinemia) or normal saline (for control) were surgically implanted subcutaneously on the back and posterior to the scapulae of male Wistar rats under anesthesia (2% isoflurane in medical grade oxygen). The incision was closed after implantation and the rats were allowed to recover in their cage. For both WT and GluN2A-KO mice, osmotic pumps (Alzet, 2001, flow rate 1 μl/hr; Durect Corp., Cupertino, Calif.) containing either 200 μl of freshly prepared 200 mM L-homocysteine (for hyperhomocysteinemia) or normal saline (for control) were implanted similarly.
Blood was obtained from rats (retro-orbital) and mice (cardiac puncture) under anesthesia with 2% isoflurane in medical grade oxygen, before installation of osmotic pumps (0 day) and at various time points after installation of osmotic pumps (rats: day 3, day 5, and day 7; mice: day 3 and day 5). Blood was collected in standardized VACUTAINER venous blood collection EDTA-tubes (ThermoFisher Scientific, Inc., Waltham, Mass.) and centrifuged at 3,500 rpm for 15 minutes. The plasma obtained was analyzed for total plasma homocysteine levels using high performance liquid chromatography with post-column fluorescence detection as previously described (Gilfix et al., 1997, Clin Chem 43:687-688; Jacobsen et al., 1994, Clin Chem 40:873-881; Miller et al., 2013, Am J Clin Nutr 97:827-834).

[Ca^2+]i = Intracellular Ca^2+ by Fura2 imaging, WT and GluN2A KO mouse neuronal cultures; type: cell-based, mice; details: somata and processes, L-homocysteine 50 μM, 60 min
Procedure: Embryos obtained from pregnant Sprague Dawley rats (16-17-day gestation) or wild type (WT) and GluN2A KO mice (15-16-day gestation) were used to establish primary cortical neuronal cultures as previously described (Poddar and Paul, 2009, J Neurochem 110:1095-1106; Poddar and Paul, 2013, J Neurochem 124:558-570; Poddar et al., 2017, J Neurochem 142:560-573). Neurons were grown on either (a) 35-mm culture dishes (MatTek Corp., Ashland, Mass.) coated overnight with poly-D-lysine (50 μg/ml) and laminin (10 μg/ml) for Ca^2+ imaging studies, (b) poly-D-lysine-coated 60 mm dishes (Corning BIOCOAT, Corning Inc., Corning, N.Y.) for biochemical studies, or (c) poly-D-lysine-coated 4-well culture slides (Corning BIOCOAT, Corning Inc., Corning, N.Y.) for cell death assay. Neurons were maintained in culture for 12-13 days before experiment. The cells were treated with freshly prepared L-homocysteine (50 μM) in Hank's balanced salt solution containing 50 μM of glycine (Lipton et al., 1997, Proceedings of the National Academy of Sciences of the United States of America 94:5923-5928; Poddar and Paul, 2009, J Neurochem 110:1095-1106; Poddar and Paul, 2013, J Neurochem 124:558-570; Poddar et al., 2017, J Neurochem 142:560-573) for the specified time periods. In a parallel series of experiments, cells were treated with glutamate (50 μM) for the specified time periods. Cells were then processed for live cell imaging, immunoblotting or cell death assay. In some experiments EGTA, DL-AP5, NVP-AAM077, Ro 25-6981 or PD98059 was added 15 minutes prior to L-homocysteine or glutamate treatment.
[Ca^2+]i in neurons was determined using the fluorescent indicator, Fura2-AM. […] Fluorescence excitations (340 and 380 nm) were provided with Sutter LB-LS/30 Lambda xenon arc lamp and fluorescence emissions (510 nm) were captured using a CCD camera (Teledyne Photometries, Tucson, Ariz.). […] Maximum and minimum fluorescence ratios were determined from Fura2 loaded cells treated with ionomycin (5 μM) in calcium containing medium (2 mM) or in calcium free media with EGTA (0.5 mM).

N[C@@H](CCS)C(=O)O [L-homocysteine]
cellular level of IκB (IκB): significant decrease in the cellular level of IκB | concentration at 3 day ([1]; GluN2A-KO mice, day 3, day 0 5.72±0.33 μM): 18.5 ± 2.55 µM | concentration at 5 day ([1]; GluN2A-KO mice): 15.9 ± 2.09 µM | concentration at 3 day ([1]; WT mice, day 3, day 0 6.6±0.73 μM): 19 ± 1.68 µM | concentration at 5 day ([1]; WT mice): 16.7 ± 1.73 µM | Fura2 fluorescence ratio and [Ca^2+]i ([Ca^2+]i; neurons from GluN2A KO mice): fails to increase Fura2 fluorescence ratio or [Ca^2+]i | Fura2 fluorescence ratio and [Ca^2+]i ([Ca^2+]i; neurons from WT mice): progressive increase in Fura2 fluorescence ratio and [Ca^2+]i
